From patent US20220370625A1, “THERAPEUTIC CONJUGATES” (Totus Medicines Inc., priority 2019, published 2022)

target: T1, estrogen receptor (Homo sapiens, UniProt P03372); experiment: NanoBRET screening of ARCS (binding assay with washout) in transfected HEK293 cells; settings: HEK293 cells transfected with NanoLuc-target fusion, estrogen receptor
T1 construct: expressed in transfected cells; host or cells: HEK293 (Gibco 293-H), transient transfection with FuGENE HD
T1 sequence (P03372 1-595): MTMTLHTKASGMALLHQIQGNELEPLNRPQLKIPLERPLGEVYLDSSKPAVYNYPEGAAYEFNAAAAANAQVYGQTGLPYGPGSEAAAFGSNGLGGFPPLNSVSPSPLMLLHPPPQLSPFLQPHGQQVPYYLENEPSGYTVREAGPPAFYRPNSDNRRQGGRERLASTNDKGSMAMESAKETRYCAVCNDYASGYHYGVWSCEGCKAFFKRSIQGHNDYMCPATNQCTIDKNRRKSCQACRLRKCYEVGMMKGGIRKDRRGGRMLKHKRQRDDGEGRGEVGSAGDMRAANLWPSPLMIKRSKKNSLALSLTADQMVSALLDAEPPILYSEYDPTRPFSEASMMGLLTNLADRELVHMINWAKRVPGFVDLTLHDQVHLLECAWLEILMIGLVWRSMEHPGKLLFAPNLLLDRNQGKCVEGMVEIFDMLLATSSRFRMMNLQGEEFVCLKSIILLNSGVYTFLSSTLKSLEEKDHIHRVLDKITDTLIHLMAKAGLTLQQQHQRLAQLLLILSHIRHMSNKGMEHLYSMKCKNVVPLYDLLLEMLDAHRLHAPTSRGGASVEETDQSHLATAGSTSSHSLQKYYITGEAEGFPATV
Experimental: Human embryonic kidney 293-H (HEK 293, Gibco 293-H, #11631017) cell lines are maintained in Dulbecco's Modified Eagle Medium, high glucose, pyruvate (DMEM, Gibco, #11995065) supplemented with 10% fetal bovine serum (FBS, Gibco, #10082147) and 1× penicillin-streptomycin (100× solution, Gibco, #15140148) at 37° C. and 5% CO2 in a water-saturated incubator. Cell are trypsinized using 0.05% or 0.25% Trypsin-EDTA solution (Trypsin-EDTA, phenol red, Gibco, #25200056 (0.25%) or #25300054). Opti-MEM media supplemented with 10% fetal bovine serum (Opti-MEM I reduced serum media, no phenol red, Gibco, #11058021) is used for culturing cells overnight for NanoBRET readout experiments.
HEK293 cells are cultivated appropriately prior to assay. The medium from cell flask is removed via aspiration, washed 1× with PBS followed by aspiration, trypsinized, and cells are allowed to dissociate from the flask. Trypsin is neutralized using growth medium and cells are pelleted via centrifugation at 200×g for 5 minutes. The medium is aspirated and the cells are resuspended into a single cell suspension using Opti-MEM I supplemented with 10% FBS. The cell density is adjusted to 2×10^5/mL in Opti-MEM I supplemented with 10% FBS in a sterile, conical tube. The cells are transfected and aliquoted directly in a 96-well plate for the NanoBRET assay the next day, and therefore, the cells are cultured overnight in Opti-MEM. The cells are also transfected in bulk and dispensed into a 96-well plate to allow cells to adhere to the plate overnight, thereby enabling washout studies.
The lipid:DNA complexes are prepared as follows:
A 10 μg/mL solution of DNA is prepared in Opti-MEM without serum. This solution contains the following ratios of carrier DNA and DNA encoding NanoLuc fused to the biological target. Serial dilution steps may be warranted to accurately dilute the NanoLuc fusion DNA. Added, in order, the following reagents to a sterile polystyrene test tube: 1 mL of Opti-MEM without phenol red; 9.0 μg/mL of carrier DNA; 1.0 μg/mL of NanoLuc fusion DNA (for some targets, the amount is less). The reagents are mixed thoroughly. 30 μL of FuGENE HD is added into each mL of DNA mixture to form lipid:DNA complex. […] It is mixed by pipetting up and down 5-10 times and incubated at room temperature for 20 minutes to allow complexes to form. 1 part (e.g. 1 mL) of lipid:DNA complex is mixed with 20 parts (e.g. 20 mL) of HEK293 cells in suspension at 2×10^5/mL and mixed gently by pipetting up and down 5 times in a sterile, conical tube. Larger or smaller bulk transfections are scaled accordingly, using this ratio. 100 μL cells+lipid:DNA complex is dispensed into a sterile, tissue-culture treated 96-well plate (20,000 cells/well), and incubated at least 16 hours to allow expression. The cells are incubated in a 37° C.+5% CO2 incubator for >16 hrs. A serially diluted inhibitor or test compound is prepared at 100× final concentration in 100% DMSO. The serially diluted inhibitor stock is prepared in PCR plates. 1 μL per well of 100× serially diluted inhibitor/test compound is added to the cells in 96-well plates that have been transiently transfected overnight and mixed by tapping the plate by hand. The plate is incubated at 37° C.+5% CO2 incubator overnight. A 1× solution of substrate mix (500× stock) and appropriate concentration of tracer is prepared in Opti-Mem. The cells are washed by setting a plate washer to the 96 well plate 5× in PBS pH 7.4 by adding 200 μL PBS each time. The cells are incubated at 37° C. for 2 hours. 100 μL of the 1× Substrate-Tracer solution is added and the 96 well plate is gently tapped to mix. The plate on plate reader is read every hour for the next 6 hours.
The binding assays of some ARCS are shown below. Compound 2-314 formed a covalent bond with an estrogen receptor of <20%. Compounds 2-302 and 2-303 formed a covalent bond with an estrogen receptor from about 50% to 70%. […]

Binding Potential (Percent inhibition)	Compound
++++ (++++ >90%)	CC1Cc2c([nH]c3ccccc23)C(c2c(F)cc(C=CCNCC=CC(=O)N(C)C)nc2F)N1CC(C)(C)F (centres unmarked) [Compound 2-304]
++++ (++++ >90%)	C[C@@H]1Cc2c([nH]c3ccccc23)[C@@H](c2c(F)cc(OCCNC/C=C/C(=O)N(C)C)cc2F)N1CC(C)(F)CO (some centres unmarked) [Compound 2-106]
++++ (++++ >90%)	C=CC(=O)NCCc1cc(F)c(C2c3[nH]c4ccccc4c3CC(C)N2CC(C)(C)F)c(F)c1 (centres unmarked) [Compound 2-307]
++ (++ 50-70%)	CC1Cc2c([nH]c3ccccc23)C(c2c(F)cc(C=CCNCC=CC(=O)N(C)C)cc2F)N1CC(C)(C)F (centres unmarked) [Compound 2-303]
++++ (++++ >90%)	C#CCN(C)C(=O)C=CCNCCOc1cc(F)c(C2c3[nH]c4ccccc4c3CC(C)N2CC(C)(C)F)c(F)c1 (centres unmarked) [Compound 2-311]
+++ (+++ 80-90%)	CC1Cc2c([nH]c3ccccc23)C(c2c(F)cc(NCCNCC=CC(=O)N(C)C)cc2F)N1CC(C)(C)F (centres unmarked) [Compound 2-109]
+++ (+++ 80-90%)	CC1Cc2c([nH]c3ccccc23)C(c2c(F)cc(NCCNCC=CC(=O)N(C)C)nc2F)N1CC(C)(C)F (centres unmarked) [Compound 2-108]
++ (++ 50-70%)	CC1Cc2c([nH]c3ccccc23)C(c2ccc(C=CCNCC=CC(=O)N(C)C)nc2)N1CC(C)(C)F (centres unmarked) [Compound 2-302]
++++ (++++ >90%)	CC1Cc2c([nH]c3ccccc23)C(c2c(F)cc(OCCNCC=CC(=O)N(C)C)cc2F)N1CC(C)(C)F (centres unmarked) [Compound 2-103]
+++ (+++ 80-90%)	CC1Cc2c([nH]c3ccccc23)C(c2c(F)cc(OCCNCC=CC(=O)N(C)C)nc2F)N1CC(C)(C)F (centres unmarked) [Compound 2-102]
++++ (++++ >90%)	CC1Cc2c([nH]c3cc(F)ccc23)C(c2c(F)cc(OCCNCC=CC(=O)N(C)C)cc2F)N1CC(C)(C)F (centres unmarked) [Compound 2-115]

Further lines, the molecule ahead of its results:

Compound	Binding Potential (Percent inhibition)
CC#CC(=O)NCCc1cc(F)c(C2c3[nH]c4ccccc4c3CC(C)N2CC(C)(C)F)c(F)n1 (centres unmarked) [Compound 2-309]	++++ (++++ >90%)
CC1Cc2c([nH]c3ccccc23)C(c2ccc(N)nc2)N1CC(C)(C)F (centres unmarked) [Compound 2-314]	+ (+ <20%)
CC1Cc2c([nH]c3cc(F)ccc23)C(c2c(F)cc(OCCNCC=CC(=O)N(C)C)cc2F)N1CC(C)(F)CO (centres unmarked) [Compound 2-118]	++++ (++++ >90%)
CC1Cc2c([nH]c3ccccc23)C(c2ccc(OCCNCC=CC(=O)N(C)C)nc2)N1CC(C)(C)F (centres unmarked) [Compound 2-315]	++++ (++++ >90%)
CC1Cc2c([nH]c3ccccc23)C(c2ccc(NCCNCC=CC(=O)N(C)C)nc2)N1CC(C)(C)F (centres unmarked) [Compound 2-107]	+++ (+++ 80-90%)
C=CC(=O)NCCOc1ccc(C2c3[nH]c4ccccc4c3CC(C)N2CC(C)(C)F)cn1 (centres unmarked) [Compound 2-316]	++++ (++++ >90%)
CC#CC(=O)NCCc1cc(F)c(C2c3[nH]c4ccccc4c3CC(C)N2CC(C)(C)F)c(F)c1 (centres unmarked) [Compound 2-310]	++++ (++++ >90%)
C=CC(=O)NCCc1ccc(C2c3[nH]c4ccccc4c3CC(C)N2CC(C)(C)F)cn1 (centres unmarked) [Compound 2-305]	++++ (++++ >90%)
CC#CC(=O)NCCc1ccc(C2c3[nH]c4ccccc4c3CC(C)N2CC(C)(C)F)cn1 (centres unmarked) [Compound 2-308]	++++ (++++ >90%)
C=CC(=O)NCCc1cc(F)c(C2c3[nH]c4ccccc4c3CC(C)N2CC(C)(C)F)c(F)n1 (centres unmarked) [Compound 2-306]	++++ (++++ >90%)
CC1Cc2c([nH]c3ccccc23)C(c2ccc(N)cc2)N1CC(C)(C)F (centres unmarked) [Compound 2-312]	++++ (++++ >90%)
CC1Cc2c([nH]c3ccccc23)C(c2c(F)cc(N)cc2F)N1CC(C)(C)F (centres unmarked) [Compound 2-301]	+++ (+++ 80-90%)
C#CCCCNC(=O)C=CCNCCOc1cc(F)c(C2c3[nH]c4ccccc4c3CC(C)N2CC(C)(C)F)c(F)c1 (centres unmarked) [Compound 2-300]	+++ (+++ 80-90%)

same assay, conditions: HEK293 cells transfected with NanoLuc-target fusion, overnight incubation, washout

activity of an estrogen receptor is inhibited [%]	formed a covalent bond with an estrogen receptor [%]	Compound
< 20	< 20	CC1Cc2c([nH]c3ccccc23)C(c2ccc(N)nc2)N1CC(C)(C)F (centres unmarked) [Compound 2-314]
